According to article PMC7910904, “Improving the Antioxidant Properties of Calophyllum inophyllum Seed Oil from French Polynesia: Development and Biological Applications of Resinous Ethanol-Soluble Extracts” (Antioxidants, 2021):

Biological target: T1, proteinase K (PTA) (Parengyodontium album, UniProt P06873)
T1 construct: purchased Sigma-Aldrich
Assay: Proteinase inhibitory activity
Format: biochemical
Details: compounds at 150 µg/mL
Experimental: Anti-inflammatory properties of the extracts were evaluated by their proteinase and lipoxygenase inhibitory activities as described. Briefly, PTA (0.06 mg) was dissolved in 2 mL of Tris HCl buffer (20 mM, pH 7.4) containing a suspension of each extract (100–600 µg/mL). The mixture was incubated at 37 °C for 5 min, and 1 mL of 4% BSA was added. Incubation was prolonged for 20 min, and afterwards 2 mL of 5% trichloroacetic acid was added to the mixture. After centrifugation (3000 rpm, 10 min, 4 °C) the absorbance was read at 210 nm against buffer as blank, and the percentage of proteinase inhibition activity was calculated. Experiments were performed in triplicate and averaged. The anti-inflammatory drug diclofenac (100–300 µg/mL) was used as a standard for comparison.

T1 sequence (P06873 106-384): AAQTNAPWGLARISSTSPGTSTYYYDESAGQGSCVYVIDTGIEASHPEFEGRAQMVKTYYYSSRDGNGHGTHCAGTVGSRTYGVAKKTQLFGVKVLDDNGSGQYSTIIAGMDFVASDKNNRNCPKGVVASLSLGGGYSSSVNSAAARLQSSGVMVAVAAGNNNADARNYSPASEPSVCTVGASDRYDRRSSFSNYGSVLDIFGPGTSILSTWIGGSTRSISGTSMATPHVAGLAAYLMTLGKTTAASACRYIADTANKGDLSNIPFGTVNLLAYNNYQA

Molecule `O=C(O)Cc1ccccc1Nc1c(Cl)cccc1Cl` [Diclofenac] has an inhibition at 150 µg/mL of 64 ± 2%.
